The source of these data is patent publication US9750757B2, “Methods of prevention or treatment for pathologic thrombosis or inflammation” (THOMAS JEFFERSON UNIVERSITY, priority 2013, dated 2017).

The subject of assay [1] is platelet rich plasma (PRP). Briefly: Light transmission aggregometry in platelet rich plasma, agonist-induced maximal aggregation (PRAX1). It counts as cell-based, human. The following applies: for Mean percent maximal aggregation, Black: PRP of black subjects; for Mean percent maximal aggregation, White: PRP of white subjects. The procedure: (1) Houston studies. A complete blood count and mean platelet volume were obtained using an ABX Micros 60 CS (Horiba ABX, Irvine, Calif., USA). Using light transmission aggregometry, maximal percent aggregation and slope of aggregation at 10 min in platelet rich plasma (PRP) treated with: 0.5 mg/ml arachidonic acid, 4 μM ADP, 1 μM and 2 μM PAR1 activating peptide (PAR1-AP), and 50 μM and 75 μM PAR4 activating peptide (PAR4-AP) were measured. (2) Philadelphia studies. Light transmission aggregometry of washed platelets was used to assess thrombin-induced platelet aggregation without or with a 2 min pre-incubation with 20 μM BMS-200261 (BMS, PAR1-specific antagonist) (Quinton et al., J. Biol. Chem. 2004, 279, 18434-18439). A difference in the efficacy of the PAR1 inhibitor was observed between the pilot and replicate studies, but validation of inhibitor activity was confirmed for both studies (FIG. 1B inset and FIG. 7E). For assessment of calcium mobilization, platelets were re-calcified to a final concentration of 1 mM followed by pre-incubation with Fluo-4 AM for 10 min. The platelets were then stimulated with PAR4-AP and calcium mobilization was measured using the Accuri C6 flow cytometer (Yeung et al., Mol. Pharmacol. 2012, 81, 420-430). In both Houston and Philadelphia, technical variation was minimized by use of the same highly-trained technicians, same lots of reagents and same instruments throughout the duration of the study. Because multiple concentrations were used to activate PAR1 and PAR4 to induce platelet aggregation, an integrated score was developed that combined these values to determine a single index that represented each individual's agonist response. This score correlated strongly with standard assessment of maximal percent aggregation, but inclusion of slope (which was a minor contributor to the overall score, and highly related to maximal aggregation) allowed distinction among platelets with the same maximal aggregation value. This score was highly reproducible in 10 subjects studied weekly for three or four weeks.

The subject of assay [2] is platelets, PAR4-AP-induced aggregation. The assay can be described thus: PAR4-AP-induced aggregation of washed platelets (light transmission aggregometry). It counts as cell-based. The following applies: washed human platelets incubated 30 min with inhibitor; sub-threshold concentrations of PAR4-AP. Here is the method:
(§1) The indicated concentrations of LDN-193,188 were incubated for 30 min with washed platelets and stimulated with sub-threshold concentrations of activating PAR peptides. […] Biol. Chem. 2004, 279, 18434-18439). […] For assessment of calcium mobilization, platelets were re-calcified to a final concentration of 1 mM followed by pre-incubation with Fluo-4 AM for 10 min. The platelets were then stimulated with PAR4-AP and calcium mobilization was measured using the Accuri C6 flow cytometer (Yeung et al., Mol. Pharmacol. 2012, 81, 420-430). In both Houston and Philadelphia, technical variation was minimized by use of the same highly-trained technicians, same lots of reagents and same instruments throughout the duration of the study. […] This score correlated strongly with standard assessment of maximal percent aggregation, but inclusion of slope (which was a minor contributor to the overall score, and highly related to maximal aggregation) allowed distinction among platelets with the same maximal aggregation value. This score was highly reproducible in 10 subjects studied weekly for three or four weeks.

For assay [3], the system named is platelets, PAR1-AP-induced aggregation. Briefly: PAR1-AP-induced aggregation of washed platelets (light transmission aggregometry). It is filed as cell-based. The following applies: washed human platelets incubated 30 min with inhibitor; sub-threshold concentrations of PAR1-AP. Here is the method: as §1
Assay [4] concerns the target T1, PC-TP (Homo sapiens, UniProt Q9UKL6).
T1 sequence (Q9UKL6 1-214): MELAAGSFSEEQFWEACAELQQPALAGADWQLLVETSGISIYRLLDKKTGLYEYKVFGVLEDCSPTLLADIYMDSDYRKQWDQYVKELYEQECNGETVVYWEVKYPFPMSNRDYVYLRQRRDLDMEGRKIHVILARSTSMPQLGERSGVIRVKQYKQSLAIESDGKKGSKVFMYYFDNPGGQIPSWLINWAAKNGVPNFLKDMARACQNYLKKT
As to conditions: Wagel et al. 2008; cited from earlier work.

Assay [5] has as its target T1, PC-TP. The following applies: Shishova et al. 2011; cited from earlier work.

SMILES strings stand for the structures. Entries after “also recorded” stand apart in the source; their conditions may differ.

With `CCCCC/C=C\C/C=C\C/C=C\C/C=C\CCCC(=O)O` [AA, arachidonic acid], in assay [1] (500 μg/ml AA), the “Fold difference (Black/White)” value is 0.99 fold; the “Mean percent maximal aggregation, Black” value was determined as 86.57%; the “Mean percent maximal aggregation, White” value amounted to 87.21%.
For `Nc1ncnc2c1ncn2[C@@H]1O[C@H](COP(=O)(O)OP(=O)(O)O)[C@@H](O)[C@H]1O` [ADP], in assay [1] (4 μM ADP), the “Fold difference (Black/White)” value is reported as 0.91 fold; the “Mean percent maximal aggregation, Black” value worked out at 40.89%; the “Mean percent maximal aggregation, White” value was determined as 45.04%.
With `Cc1cc(C)nc(NS(=O)(=O)c2ccc(NC(=O)NC(=O)c3ccc(Cl)cc3Cl)cc2)n1` [LDN-193,188, 2,4-dichloro-N-(4-(N-(4,6-dimethylpyrimidin-2-yl)sulfamoyl)phenylcarbamoyl)-benzamide], the “Effect on PAR4-AP-induced platelet aggregation” value in assay [2] was “prevented aggregation; also recorded: blocked; also recorded: does block”. In addition, the “Effect on PAR1-AP-induced platelet aggregation” value in assay [3] is reported as “does not block”. At PC-TP [4], the “Phosphatidylcholine transfer activity of PC-TP” value was “inhibitor”. On PC-TP [5], the “Displacement of phosphatidylcholine from PC-TP” value was “displaces phosphatidylcholine from the lipid binding pocket” and the “Thermal stability of PC-TP” value was “increases the thermal stability”.
